Reference: PubChem BioAssay AID1919004 (Molecular Pharmacology Branch, DTP, NCI, 2023)

Tested on: 883617-216-R-J1-PDC complex spheroids, growth, % test/control
Assay: Anticancer human tumor 883617-216-R-J1-PDC patient-derived bladder carcinoma cell line growth inhibition [AhR]
Conditions: for IC50: curve of first compound; for viability, T/C: stronger effect = lower value
Description: Multicellular complex tumor spheroid response to aryl hydrocarbon receptor antagonists in combination with a variety of drugs and investigational agents in selected tumor cell lines
The current study was undertaken to assess response to aryl hydrocarbon receptor antagonists in combination with standard-of-care drugs and investigational agents in solid tumor complex spheroid models. Complex spheroids include a stromal component modeled by human endothelial cells (HUVEC) and fibroblasts modeled by human mesenchymal stem cells (MSCs). The concentration ranges selected for each drug and investigational agent were based upon clinically achievable concentrations if the clinical Cmax of the agent was known.
Compounds. The drugs and investigational agents: BAY 2416964 (NSC825713), GNF351 (NSC835774), CH-223191 (NSC835775), CPI-455 (NSC825282), aza-TdCyd (NSC777586), decitabine (NSC127716), belinostat (NSC758774), entinostat (NSC756642), pevonedistat (NSC761192), tazemetostat (NSC777109), talazoparib (NSC765396), olaparib (NSC753686), selinexor (NSC780203), nedisertib (M3814, NSC802822), bortezomib (NSC756655), venetoclax (NSC766270), doxorubicin (NSC123127), elimusertib (BAY189344, NSC800525), ceralasertib (AZD6738, NSC777638), TAK-243 (NSC785004), alisertib (NSC759677), etoposide (NSC141540), topotecan (NSC609699), eribulin (NSC707389), gemcitabine (NSC613327), carboplatin (NSC241240), cisplatin (NSC119875), and SN-38 (NSC673596) were obtained from the National Cancer Institute (NCI) Developmental Therapeutics Program Chemical Repository (32). The FDA-approved anticancer drug set is available from the Developmental Therapeutics Program at https://dtp.cancer.gov/organization/dscb/obtaining/available plates.htm. […] The stock solutions were prepared in dimethyl sulfoxide (DMSO, Sigma-Aldrich, St. Louis, MO, cat. D2650), except for the platinum compounds which were prepared in saline (Quality Biological, Gaithersburg, MD, cat. 114-055-101), at 800-fold the tested concentration and stored at -70 degrees C prior to their use. All drugs and investigational agents were tested over a range starting from a high concentration at or near the clinical Cmax and decreasing in half-log increments. If the clinical Cmax for an agent had not been determined, the highest concentration tested was 10 microM (Table 1).
Cell Culture. All cells were maintained in an incubator at 37 degrees C and 5% CO2 with 95% humidity. The PDC lines were cultured according to standard operating procedures established by the NCI PDMR (https://pdmr.cancer.gov). Briefly, all PDCs were thawed and cultured in Matrigel-coated flasks prepared with a working solution of 1X Ham's F-12 nutrient mix, without supplementation (Invitrogen, Waltham, MA, cat. 11765054), 100 U/mL penicillin-streptomycin (Invitrogen, cat. 15140122), and 2.5% Matrigel (Corning Inc., Corning, NY, cat. 354248) for the first three passages. All PDCs were cultured in complete DMEM/F-12 media containing advanced DMEM/F-12 (Invitrogen, cat. 12634028), 4.9% defined fetal bovine serum, heat inactivated (HyClone Laboratories Inc., Logan, UT, cat. SH30070.03HI), 389 ng/mL hydrocortisone (Sigma-Aldrich, cat. H4001), 9.7 ng/mL human EGF recombinant protein (Invitrogen, cat. PHG0313), 23.4 microg/mL adenine (Sigma-Aldrich, cat. A2786), 97.3 U/mL penicillin-streptomycin (Invitrogen, cat. 15140122), 1.9 mM L-glutamine (Invitrogen, cat. 25030081), and 9.7 microM Y-27632 dihydrochloride (Tocris Bioscience, Bristol, United Kingdom, cat. 1254). The PDCs were cultured in complete DMEM/F12 media without 10 microM Y-27632 dihydrochloride for at least two passages prior to the screen. The established cell lines NCI-H1341 and […] were cultured in DMEM/F-12, HEPES (Invitrogen, cat. 11330032), 5% defined fetal bovine serum (HyClone Laboratories Inc., cat. SH30070.03), ITS premix universal culture supplement [insulin (5 microg/mL), transferrin (5 microg/mL), and selenious acid (5 ng/mL)] […]

[1] = second compound 0.1 µM, first compound 0.0316 µM
[2] = second compound 0.1 µM, first compound 0.1 µM
[3] = second compound 0.1 µM, first compound 0.316 µM
[4] = second compound 0.1 µM, first compound 1 µM
[5] = second compound 0.1 µM, first compound 3.16 µM
[6] = second compound 0.1 µM, first compound 10 µM
[7] = second compound 0.316 µM, first compound 0.0316 µM
[8] = second compound 0.316 µM, first compound 0.1 µM
[9] = second compound 0.316 µM, first compound 0.316 µM
[10] = second compound 0.316 µM, first compound 1 µM
[11] = second compound 0.316 µM, first compound 3.16 µM
[12] = second compound 0.316 µM, first compound 10 µM
[13] = second compound 1 µM, first compound 0.0316 µM
[14] = second compound 1 µM, first compound 0.1 µM
[15] = second compound 1 µM, first compound 0.316 µM
[16] = second compound 1 µM, first compound 1 µM
[17] = second compound 1 µM, first compound 3.16 µM
[18] = second compound 1 µM, first compound 10 µM
[19] = second compound 3.16 µM, first compound 0.0316 µM
[20] = second compound 3.16 µM, first compound 0.1 µM
[21] = second compound 3.16 µM, first compound 0.316 µM
[22] = second compound 3.16 µM, first compound 1 µM
[23] = second compound 3.16 µM, first compound 3.16 µM
[24] = second compound 3.16 µM, first compound 10 µM
[25] = second compound 10 µM, first compound 0.0316 µM
[26] = second compound 10 µM, first compound 0.1 µM
[27] = second compound 10 µM, first compound 0.316 µM
[28] = second compound 10 µM, first compound 1 µM
[29] = second compound 10 µM, first compound 3.16 µM
[30] = second compound 10 µM, first compound 10 µM
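Further: exposure lasted 7 days after dosing on day 3 of spheroid growth.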

IC50 (second compound 0.1 µM) [nM]	IC50 (second compound 0.316 µM) [nM]	IC50 (second compound 1 µM) [nM]	IC50 (second compound 3.16 µM) [nM]	IC50 (second compound 10 µM) [nM]	Structure (SMILES)	viability, T/C [1] [%]	viability, T/C [2] [%]	viability, T/C [3] [%]	viability, T/C [4] [%]	viability, T/C [5] [%]	viability, T/C [6] [%]	viability, T/C [7] [%]	viability, T/C [8] [%]	viability, T/C [9] [%]	viability, T/C [10] [%]	viability, T/C [11] [%]	viability, T/C [12] [%]	viability, T/C [13] [%]	viability, T/C [14] [%]	viability, T/C [15] [%]	further results
2750	2990	2790	2260	< 31.6	NS(=O)(=O)OCC1CC(n2ccc3c(NC4CCc5ccccc54)ncnc32)CC1O (stereo not given) + Cc1cncc(-c2nc(NCCc3c[nH]c4ccccc34)c3ncn(C(C)C)c3n2)c1	118	165	209	131	43.6	29.1	128	164	225	120	44.5	25.9	141	167	212	viability, T/C [16]: 130%; viability, T/C [17]: 48%; viability, T/C [18]: 30.1%; viability, T/C [19]: 141%; viability, T/C [20]: 179%; viability, T/C [21]: 204%; viability, T/C [22]: 112%; viability, T/C [23]: 33.2%; viability, T/C [24]: 15.4%; viability, T/C [25]: 48.1%; viability, T/C [26]: 50.6%; viability, T/C [27]: 28.6%; viability, T/C [28]: 6.98%; viability, T/C [29]: 4.81%; viability, T/C [30]: 2.51%
> 10000	> 10000	> 10000	> 10000	> 10000	COc1cc(C2c3cc4c(cc3C(OC3OC5COC(C)OC5C(O)C3O)C3COC(=O)C23)OCO4)cc(OC)c1O (stereo not given) + Cc1ccccc1N=Nc1ccc(NC(=O)c2ccnn2C)c(C)c1	86.4	83.5	69.7	68	69.5	57.4	80.8	86.7	77.3	69	70.2	57.6	80.7	82	75.7	viability, T/C [16]: 64.6%; viability, T/C [17]: 72.1%; viability, T/C [18]: 54.2%; viability, T/C [19]: 73%; viability, T/C [20]: 72.7%; viability, T/C [21]: 71.1%; viability, T/C [22]: 61.2%; viability, T/C [23]: 70.9%; viability, T/C [24]: 56.4%; viability, T/C [25]: 67.8%; viability, T/C [26]: 77.5%; viability, T/C [27]: 73.2%; viability, T/C [28]: 65.6%; viability, T/C [29]: 63.5%; viability, T/C [30]: 57.1%
2500	2350	2480	2480	2690	NS(=O)(=O)OCC1CC(n2ccc3c(NC4CCc5ccccc54)ncnc32)CC1O (stereo not given) + Cc1ccccc1N=Nc1ccc(NC(=O)c2ccnn2C)c(C)c1	143	184	253	137	37.4	18.3	131	173	240	119	30.9	20.6	127	156	256	viability, T/C [16]: 125%; viability, T/C [17]: 39.3%; viability, T/C [18]: 20.9%; viability, T/C [19]: 121%; viability, T/C [20]: 146%; viability, T/C [21]: 233%; viability, T/C [22]: 128%; viability, T/C [23]: 37.4%; viability, T/C [24]: 18.5%; viability, T/C [25]: 118%; viability, T/C [26]: 179%; viability, T/C [27]: 210%; viability, T/C [28]: 125%; viability, T/C [29]: 43.6%; viability, T/C [30]: 17.4%
